From patent US9051240B2, “Substituted 2-[2-(phenyl) ethylamino] alkaneamide derivatives and their use as sodium and/or calcium channel modulators” (Newron Pharmaceuticals S.P.A., priority 2007, dated 2015)
Read-outs that look alike come from different tables or passages of the source.

Experiments:
mice = assay: Acetic acid-induced visceral pain model in mice; assay type: in vivo; conditions: 20 mg/Kg p.o.
Description: The acetic acid-induced visceral pain model is widely used in experimental research to produce abdominal contractions (Korster R et al., Fed. Pro. (1959) 18: 412; Friese N et al., Life Sci. (1997) 60: 625-634) The model consists of intraperitoneal (i.p.) injection of an irritant that induces a syndrome called ‘writhing’, which consists of contractions of the abdomen, twisting and turning of the trunk, arching of the back and extension of the hind limbs.
Animals and procedure: Male CD1 mice weighing 25-33 g were used. Each treated group was allowed 30 min to habituate to laboratory surroundings in individual polypropylene transparent boxes. The visceral pain was scored by counting the number of writhes for 10 min after i.p. injection of 0.6% acetic acid (10 ml/kg of body weight). The number of writhes after acetic acid administration were evaluated. Both complete body stretching (complete writhe) or partial stretching with a clear contracting of the abdomen (partial writhe) were counted.
Separate groups of 10 mice each were administered orally with vehicle (10 ml/kg), or different doses of the tested compound dissolved in vehicle (10 ml/kg), 5 min before acetic acid injection. Data are expressed as the mean number of writhes during the 10 min observation period.

L-type calcium channels = assay: Calcium channel influx assay (fluorescence, AtT20 cell line); assay type: cell-based, mouse; conditions: AtT20 cells, 100 mM KCl depolarization; read-out: Ca++ influx IC50
Procedure: AtT20/D16v-F2 mouse pituitary tumour cell line preferentially expresses L-type calcium channels.
AtT20 cells were grown in DMEM with 10% of FBS, 4 mM glutamine. The cells were seeded at 200,000 cells/well on 96 poly-L-lysine-coated plates and further incubated for 18-24 h, before use.
The Ca^++ Kit Assay (Molecular Devices), which is based on a fluorescent calcium indicator to detect the calcium influx determined by depolarizing conditions, was used for the assay.
Cells were incubated with the calcium dye loading for 30 min at 37° C. Then, ω-conotoxin alone (1 μM) or in presence of nifedipine (as reference standard) or test compound were added for further 15 min.
The fluorescence (excitation: 485-emission: 535 nm wavelength) was measured before and after (30-40 sec) the automated injection of 100 mM KCl depolarizing solution using a Victor plate reader (Perkin Elmer).
The inhibition curves were calculated from 5 concentrations, each in triplicate, and the IC50 determined using linear regression analysis.

[1] = tested on: Na+ currents in ND7/23 cells (TTX-s); assay: Patch clamp evaluation of Na+ currents blockade in ND7/23 cell line; assay type: cell-based, rat
Procedure: ND7/23 (ECACC No 92090903 from SIGMA), is a hybrid cell line derived from a neonatal rat DRG fused with the mouse neuroblastoma N18Tg2 (Wood et al., Proc. Biol. Sci., 1990 September, 241(1302), 187-194).
The molecular identity of the channels responsible for the TTX-s conductance is unknown but it is presumed that TTX-s conductance arises from the activity of a mixed population of sodium channels.
Cells are routinously maintained in DMEM with 10% of FBS, 4 mM glutamine, 1 mM sodium piruvate. The day before the patch clamp experiment cells are detached and seeded at 100,000 cells/polylysine-coated 35 mm Petri dish.
Experiments on ND7/23 cells were carried out using standard whole cell patch clamp methods (Hamill et al., Pfugers Arch., 1981 August, 391(12), 85-100), as described in previous section.
To test the effect of compounds on sodium currents in ND7/23 cells, holding membrane potential was set at −90 mV, then a two step protocol was used to determine the voltage dependence of the block. Sodium currents were activated by a 30 ms step pulse to 0 mV (test pulse) from a 2000 ms preconditioning potential of −110 mV (resting condition) and a potential of ˜−70 mV (half maximal steady-state condition).
Tonic block of resting and depolarized currents at a given drug concentration was calculated as the difference between the peak Na^+ current in the control external bath solution and peak currents with the test substance divided by control peak.
Drug concentration-inhibition curves were obtained by plotting tonic blocks in the resting and depolarized condition, versus drug concentrations. Dose-response curves were fitted to the tonic block data, according to the logistic equation: y=A2+(A1−A2)/[1+(x/IC50)p]. A1 and A2 are fixed values of 0 and 1 corresponding to 0 and 100% current inhibition, x is the drug concentration, IC50 is the drug concentration resulting in 50% current inhibition and p is the corresponding slope factor.
The apparent affinity of drug for the inactivated state (Ki) was calculated according to the equation 1/Kdep=h/Kr+(1−h)/Ki where Kr is the affinity of drug for the resting/closed state; Kdep is the IC50 in the depolarized condition, h and (1−h) are the fractions of channels present at the rest. and dep. potentials, respectively.
Control bath solution contained (mM): NaCl 80, Choline HCl 40, CaCl2 1.3, MgCl2 2, KCl 2, CdCl2 0.4, NiCl2 0.3, TEACl 20, Hepes 10, Glucose 10.
Internal pipette solution consisted of (mM): CsF 65, CsCl 65, NaCl 10, CaCl2 1.3, MgCl2 2, Hepes 10, EGTA 10, MgATP 1.
Compounds were dissolved as stock solutions (20 mM) in DMSO. They were diluted to the final concentrations in the external solution.

SMILES: CCCCOc1cccc(CCNCC(=O)N(C)C)c1.Cl [2-[2-(3-Butoxyphenyl)-ethylamino]-N,N-dimethylacetamide hydrochloride]
- number of writhes, significance vs. vehicle (mice): p<0.01 vs. vehicle

SMILES: C[C@H](NCc1ccc(OCc2ccccc2F)cc1)C(N)=O [ralfinamide, (S)-(+)-2-[4-(2-fluorobenzyloxy)-benzylamino]-propanamide, reference compound]
- IC50 (L-type calcium channels): 26 µM
- Ki ([1]; calculated from Kr and Kdep, read-out: Ki (apparent affinity for the inactivated state)): 8.3 µM
- IC50 ([1]; read-out: IC50 depolarized, preconditioning potential ~-70 mV): 15 µM
- IC50 ([1]; read-out: IC50 resting (Kr), preconditioning potential -110 mV): 149 µM
